{"source": "paper PMC7415805", "about": "(Theranostics, 2020)", "key": {"[1]": {"system": "293FT cells expressing polymorphic TSPO", "assay": "In vitro cellular uptake of radioactive ligands in cells expressing polymorphic TSPO", "type": "cell-based, human", "conditions": "293FT cells expressing TSPO WT or Mut-A147T; 1 h at 37°C", "experimental": "Cells were seeded in 6-well plates (Sigma-Aldrich) until they reached approximately 80% confluency. […] The cells were then trypsinized (Gibco), counted, and 1×10^5 cells transferred into a 5 mL test tube containing warmed Hank's balanced salt solution (HBSS, Sigma-Aldrich) with 0.5% (w/v) bovine serum albumin (Sigma-Aldrich). […] The cells were then washed 3 times with cold HBSS and lysed for 5 min in 200 μL of 1% sodium dodecyl sulfate (SDS, Sigma-Aldrich). Cell lysates were collected, and radioactivity was measured by a Cobra II gamma counter (Canberra Packard; Vaughan, Ontario, Canada). Radioactivity was normalized according to the amount of total protein at the time of assay. Total protein levels were quantified by the BCA protein assay kit (Pierce, Rockford, IL, USA). All experiments were performed in triplicate."}, "RAW264.7": {"system": "RAW264.7", "assay": "[18F]CB251 uptake in activated macrophage cell line", "type": "cell-based, mouse", "conditions": "RAW264.7 activated with LPS and IFN-γ for 24 h vs non-activated", "experimental": "(§1) RAW264.7, a mouse macrophage cell line and mouse splenocytes were used to evaluate TSPO expression. LPS (50 ng/mL, Sigma-Aldrich, St.Louis, MO, USA) and IFN-γ (20 ng/mL, Sigma-Aldrich) were used to activate immune cells. The 293FT (Invitrogen, Carlsbad, CA, USA) and MDA-MB-231 (ATCC, Manassas, VA, USA) cell lines were used for various TSPO expression levels. Cells were maintained in complete DMEM (for Raw264.7 and MDA-MB-231) or MEM (for 293FT) with 10% FBS and 1% antibiotics (penicillin-streptomycin). All media and reagents for cell culture, including FBS and antibiotics were purchased from Gibco (Grand Island, NY, USA).\n(§2) Cells were seeded in 6-well plates (Sigma-Aldrich) until they reached approximately 80% confluency. Before the uptake experiments, the cells were preincubated with glucose-free RPMI-1640 medium (Gibco) for 4 h. The cells were then trypsinized (Gibco), counted, and 1×10^5 cells transferred into a 5 mL test tube containing warmed Hank's balanced salt solution (HBSS, Sigma-Aldrich) with 0.5% (w/v) bovine serum albumin (Sigma-Aldrich). […] Cell lysates were collected, and radioactivity was measured by a Cobra II gamma counter (Canberra Packard; Vaughan, Ontario, Canada). Radioactivity was normalized according to the amount of total protein at the time of assay. Total protein levels were quantified by the BCA protein assay kit (Pierce, Rockford, IL, USA). […]"}, "mouse splenocytes": {"system": "mouse splenocytes", "assay": "[18F]CB251 uptake in activated splenocytes", "type": "cell-based", "conditions": "mouse splenocytes activated with LPS and IFN-γ for 24 h vs non-activated", "experimental": "as §1, §2"}, "[2]": {"system": "293FT cells transfected with pCMV-TSPO/eGFP", "assay": "[18F]CB251 uptake in TSPO-overexpressing cells", "type": "cell-based, human", "conditions": "TSPO-overexpressing 293FT cells vs control", "experimental": "(§3) For overexpression of the TSPO protein, the 293FT cell line was transiently transfected with vectors (pCMV-eGFP/TSPO) (AddGene, Cambridge, MA, USA) harboring the eGFP and TSPO coding sequences. MDA-MB-231, which highly expresses TSPO, was used for the reduction of TSPO expression by shRNA (pCMV-eGFP/shTSPO; AddGene). Each vector used for various levels of TSPO expression was transfected by Lipofectamine 2000 (Invitrogen, Waltham, MA, USA) at a total concentration of 2.5 µg/mL. Fluorescent images were acquired by a confocal laser-scanning microscope (Leica TCS SP8; Wetzlar, Hesse, Germany), and Western blotting was performed for verification.\nas §2"}, "[3]": {"system": "293FT cells expressing polymorphic TSPOs", "assay": "PET scans of 293FT cells expressing polymorphic TSPOs (phantoms and mice bearing the cells)", "design": "species or system human", "conditions": "phantoms and mice bearing 293FT cells with polymorphic TSPOs"}, "[4]": {"system": "MDA-MB-231 cells transfected with pCMV-shTSPO/eGFP", "assay": "[18F]CB251 uptake in cells with reduced TSPO expression", "type": "cell-based, human", "conditions": "MDA-MB-231 cells with reduced TSPO expression vs control", "experimental": "as §3, §2"}, "TSPO [5]": {"molecular_target": "T1, TSPO (Mus musculus, UniProt P50637)", "T1 construct": "from tissue; host or cells: brain (striatum) of living C57BL/6 mice after intracranial LPS or saline", "assay": "[18F]CB251 PET/MR in intracranial LPS neuroinflammation model", "type": "in vivo", "conditions": "saline-injected mice, day 4; p=0.012", "experimental": "C57BL/6 mice (male, 6 weeks old) were used for generating the intracranial inflammation model. LPS (Sigma-Aldrich, 5 µg/2 µL dissolved in saline) was used to induce local inflammation in the right striatum of the mouse brain (anteroposterior, +1.8; mediolateral, +2.0; dorsoventral, -3.0) via intracranial injection by a robotic stereotaxic device (Stoelting, Wood Dale, IL) equipped with a Hamilton syringe at a rate of 0.25 µL/min [52]-[54]. Saline was injected as a control. The mouse was placed in the isoflurane induction box (5% isoflurane, 95% air, 250 cc/min) until the animal was fully anesthetized, and the isoflurane percentage was adjusted to 2% at a flow rate of 250 cc/min during the process.\nTo visualize neuroinflammation, PET/MR scans were acquired by a simultaneous small animal PET insert (SimPET, Brightonic imaging, Seoul, Korea) combined with an M7 1.0 T MRI system (Aspect Imaging, Jerusalem, Israel). […] Mice were anesthetized with 1.5% isoflurane during imaging.\n(§4) PET images were reconstructed using 3D OSEM algorithm (12 subsets and 3 iterations). […] PET and MR images were reconstructed and analyzed by the AMIDE program (ver 0.9.0, http://amide.sourceforge.net). The ratio of maximum PET SUV in the right and left striatum was then calculated."}, "TSPO A147T mutant (LAB)": {"system": "TSPO A147T mutant (LAB)", "conditions": "previous reports; cited from earlier work"}, "TSPO [6]": {"molecular_target": "TSPO", "conditions": "Ki of ligands for TSPO; cited from earlier work"}, "[7]": {"system": "intracranial LPS-induced neuroinflammation", "assay": "Anti-inflammatory treatment in intracranial LPS neuroinflammation model, read by [18F]CB251 PET and BLI", "type": "in vivo, mouse", "conditions": "CDDO-Me i.p. once daily for 3 days after LPS vs LPS-injected mice", "experimental": "Luciferase-expressing cells were isolated from the dissected spleens of transgenic C57BL/6luc^Tg mice and centrifuged at 1300 rpm for 5 min at 4 °C). The red blood cell lysis buffer (1 mL/spleen, Sigma-Aldrich) was added to the cell pellet, and the mixture was incubated at room temperature for 3 min to remove red cells. After a double volume of RPMI medium was added to the cells, 2-3 volumes of red blood cell lysis buffer were added until complete lysis of red blood cells. Subsequently, the cells were re-suspended, ensuring a suspension of single cells, and filtered through a cell strainer (40 µm nylon, Falcon, Oneonta, NY). […] Bioluminescence intensity was measured by an IVIS 100 system (Perkin Elmer, Waltham, MA). […]\nas §4\nAn in vivo IVIS 100 bioluminescence/optical imaging system (Xenogen, Alameda, CA, USA) was used to follow luciferase-expressing peripheral immune cells. […] The bioluminescent signal was acquired and analyzed by Living Image ver.2.50.2 software (Xenogen). […]"}}, "note": "pKi: −log10 of the molar value."}
{"smiles": "CCC(C)N(C)C(=O)c1cc2ccccc2c(-c2ccccc2Cl)n1", "note": "(stereo not drawn) [PK11195, reference compound]", "values": [{"measurement": "sensitivity of cellular uptake to TSPO polymorphism", "setting": "[1]", "result": "much less sensitive to TSPO polymorphism"}]}
{"smiles": "CCCN(CCC)C(=O)Cc1c(-c2ccc(OCCF)cc2)nc2c(Cl)cc(Cl)cn12", "note": "[CB251]", "values": [{"measurement": "[18F]CB251 uptake", "setting": "RAW264.7", "result": "increased"}, {"measurement": "sensitivity of cellular uptake to TSPO polymorphism", "setting": "[1]", "result": "much less sensitive to TSPO polymorphism"}, {"measurement": "[18F]CB251 uptake", "setting": "mouse splenocytes", "result": "increased"}, {"measurement": "[18F]CB251 uptake", "setting": "[2]", "result": "increased"}, {"measurement": "sensitivity of PET signal to TSPO polymorphism", "setting": "[3]", "result": "less sensitive to TSPO polymorphism"}, {"measurement": "[18F]CB251 uptake", "setting": "[4]", "result": "decreased"}, {"measurement": "[18F]CB251 PET signal, saline-injected right striatum vs non-injected left striatum", "setting": "TSPO [5]", "result": "increased slightly"}]}
{"smiles": "COc1ccccc1CN(C(C)=O)c1cnccc1Oc1ccccc1", "note": "[PBR28, reference compound]", "values": [{"measurement": "ratio of IC50 LAB/HAB", "setting": "TSPO A147T mutant (LAB)", "result": 55}, {"measurement": "pKi", "setting": "TSPO [6]", "result": 8.21}]}
{"smiles": "COC(=O)[C@]12CCC(C)(C)C[C@H]1[C@H]1C(=O)C=C3[C@@]4(C)C=C(C#N)C(=O)C(C)(C)[C@@H]4CC[C@@]3(C)[C@]1(C)CC2", "note": "[CDDO-Me, 2-Cyano-3,12-dioxo-oleana-1,9(11)-dien-28-oic acid methyl ester]", "values": [{"measurement": "BLI signal ratio (total photon flux, right/left striatum)", "setting": "[7]; p=0.0025", "result": "decreased dramatically"}, {"measurement": "[18F]CB251 uptake ratio (SUVmax, right/left striatum)", "setting": "[7]; p=0.0323", "result": "significantly decreased"}]}
